Results as given in PubChem BioAssay (NCI).
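Compound exposure: 48 hours, 5 concentrations, 96-well plates. At the TGI there is no net growth.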

Legend:
Test in all cases: NCI tumour cell line growth inhibition, 48 h
[1] = test system: 786-0 renal
[2] = test system: A498 renal
[3] = test system: A549 NSCLC
[4] = test system: ACHN renal
[5] = test system: BT-549 breast
[6] = test system: DU-145 prostate
[7] = test system: EKVX NSCLC
[8] = test system: HCC-2998 colon
[9] = test system: HCT-116 colon
[10] = test system: HCT-15 colon
[11] = test system: HL-60(TB) leukemia
[12] = test system: HOP-62 NSCLC
[13] = test system: HOP-92 NSCLC
[14] = test system: HS 578T breast
[15] = test system: HT29 colon
[16] = test system: IGROV1 ovarian
[17] = test system: K-562 leukemia
[18] = test system: KM12 colon
[19] = test system: LOX IMVI melanoma
[20] = test system: M14 melanoma
[21] = test system: MALME-3M melanoma
[22] = test system: MCF7 breast
[23] = test system: MDA-MB-231 breast
[24] = test system: MDA-MB-435
[25] = test system: MDA-N
[26] = test system: MOLT-4 leukemia
[27] = test system: NCI-H226 lung
[28] = test system: NCI-H460 lung
[29] = test system: NCI-H522 lung
[30] = test system: NCI/ADR-RES ovarian
[31] = test system: OVCAR-3 ovarian
[32] = test system: OVCAR-4 ovarian
[33] = test system: OVCAR-5 ovarian
[34] = test system: OVCAR-8 ovarian
[35] = test system: PC-3 prostate
[36] = test system: RPMI-8226 leukemia
[37] = test system: SF-268 CNS
[38] = test system: SF-295 CNS
[39] = test system: SF-539 CNS
[40] = test system: SK-MEL-2 melanoma
[41] = test system: SK-MEL-28 melanoma
[42] = test system: SK-OV-3 ovarian
[43] = test system: SN12C renal
[44] = test system: SNB-19 CNS
[45] = test system: SNB-75 CNS
[46] = test system: SR leukemia
[47] = test system: SW-620 colon
[48] = test system: T-47D breast
[49] = test system: TK-10 renal
[50] = test system: U251 CNS
[51] = test system: UACC-257 melanoma
[52] = test system: UACC-62 melanoma
[53] = test system: UO-31 renal
[54] = test system: CAKI-1 renal
[55] = test system: CCRF-CEM leukemia
[56] = test system: COLO 205 colon
[57] = test system: NCI-H23 lung
[58] = test system: RXF 393 renal
[59] = test system: SK-MEL-5 melanoma

Nc1ccccc1C(=O)CCc1c[nH]c2ccccc12
TGI [1]: > 100 µM
TGI [2]: > 100 µM
TGI [3]: > 100 µM
TGI [4]: > 100 µM
TGI [5]: > 100 µM
TGI [6]: > 100 µM
TGI [7]: > 100 µM
TGI [8]: > 100 µM
TGI [9]: > 100 µM
TGI [10]: > 100 µM
TGI [11]: > 100 µM
TGI [12]: > 100 µM
TGI [13]: 55.2 µM
TGI [14]: > 100 µM
TGI [15]: > 100 µM
TGI [16]: > 100 µM
TGI [17]: > 100 µM
TGI [18]: > 100 µM
TGI [19]: > 100 µM
TGI [20]: > 100 µM
TGI [21]: > 100 µM
TGI [22]: > 100 µM
TGI [23]: > 100 µM
TGI [24]: > 100 µM
TGI [25]: > 100 µM
TGI [26]: > 100 µM
TGI [27]: > 100 µM
TGI [28]: > 100 µM
TGI [29]: > 100 µM
TGI [30]: > 100 µM
TGI [31]: > 100 µM
TGI [32]: > 100 µM
TGI [33]: > 100 µM
TGI [34]: > 100 µM
TGI [35]: > 100 µM
TGI [36]: > 100 µM
TGI [37]: > 100 µM
TGI [38]: > 100 µM
TGI [39]: > 100 µM
TGI [40]: > 100 µM
TGI [41]: > 100 µM
TGI [42]: > 100 µM
TGI [43]: > 100 µM
TGI [44]: > 100 µM
TGI [45]: > 100 µM
TGI [46]: > 100 µM
TGI [47]: > 100 µM
TGI [48]: > 100 µM
TGI [49]: > 100 µM
TGI [50]: > 100 µM
TGI [51]: > 100 µM
TGI [52]: > 100 µM
TGI [53]: > 100 µM

CCN(CC)CCn1c(=O)c2ccccc2n2c3c(=O)n(C)c(=O)n(C)c3nc12
TGI [1]: 5.43 µM
TGI [3]: 2.05 µM
TGI [4]: 1.09 µM
TGI [5]: 4.22 µM
TGI [54]: 3.91 µM
TGI [55]: 13.1 µM
TGI [56]: 14.5 µM
TGI [6]: 4.47 µM
TGI [7]: 11.7 µM
TGI [8]: 6.8 µM
TGI [9]: 8.71 µM
TGI [10]: 66.2 µM
TGI [11]: 2.5 µM
TGI [12]: 4.62 µM
TGI [13]: 7.85 µM
TGI [14]: 19.6 µM
TGI [15]: 9.55 µM
TGI [16]: 23.3 µM
TGI [17]: 19.4 µM
TGI [18]: 6.03 µM
TGI [19]: 31.3 µM
TGI [20]: 13 µM
TGI [21]: 10.6 µM
TGI [22]: 6.2 µM
TGI [23]: 19.3 µM
TGI [24]: 15.9 µM
TGI [25]: 17.6 µM
TGI [26]: 4.73 µM
TGI [27]: 3.35 µM
TGI [57]: 10.1 µM
TGI [28]: 1.65 µM
TGI [29]: 9 µM
TGI [30]: 30.2 µM
TGI [31]: 16.4 µM
TGI [32]: 23.5 µM
TGI [33]: 7.09 µM
TGI [34]: 8.06 µM
TGI [35]: 20.4 µM
TGI [36]: 5.94 µM
TGI [58]: 34.4 µM
TGI [37]: 12.1 µM
TGI [38]: 10.1 µM
TGI [39]: 2.95 µM
TGI [40]: 6.61 µM
TGI [41]: 18.3 µM
TGI [59]: 2.94 µM
TGI [42]: 4.77 µM
TGI [43]: 10.2 µM
TGI [44]: 38.1 µM
TGI [45]: 7.46 µM
TGI [46]: 5.15 µM
TGI [47]: 16.1 µM
TGI [48]: 20.8 µM
TGI [49]: 52.5 µM
TGI [50]: 6.03 µM
TGI [51]: 16.7 µM
TGI [52]: 3.22 µM
TGI [53]: 6.29 µM
